Data on 20 compounds can be found in US9802927B2, “Oxadiazine compounds and methods of use thereof” (Denali Therapeutics, Inc., priority 2015, dated 2017).

pEC50: −log10 of the molar value. Where only a bound is given, the exact number is not on record here.

For the first assay, the system named is Aβ42. Kind of assay: In vitro cell screening assay in H4 cells expressing human APP751: Aβ42 by sandwich ELISA. It counts as cell-based. The settings on record: Homo sapiens, compounds 0.003-10 μM, incubated overnight (16-18 h), sandwich ELISA of supernatant. The method, boiled down:
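Secreted Aβ42 measured by sandwich ELISA, C-terminal-specific capture and 4G8-HRP detection, TMB read at 450 nm, from supernatants of APP751-expressing H4 cells exposed overnight (16-18 h) to 0.003-10 μM compound in Pro293 medium, 0.33% DMSO. Data scaled between DMSO and DAPT controls; EC50 from variable-slope nonlinear regression.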
(In an ELISA, binding on a coated surface is turned into a signal by an enzyme label.)
One may read the pEC50 as −log10 of the EC50, conventionally taken in molar units. The low end stands for a large EC50, the high end for a small EC50. For the compound `COc1nc(C2=NOCC(C3CCC(F)(F)CC3)N2)ccc1-n1cnc(C)c1` (single isomer, unassigned; (-)) [Example 139A, (−)-5-(4,4-difluorocyclohexyl)-3-(6-methoxy-5-(4-methyl-1H-imidazol-1-yl)pyridin-2-yl)-5,6-dihydro-4H-1,2,4-oxadiazine], the pEC50 is 5.67.

As to `COc1nc(C2=NOCC(C3CCOCC3)N2)ccc1-n1cnc(C)c1` (single isomer, unassigned; (-)) [Example 143A, (−)-3-(6-methoxy-5-(4-methyl-1H-imidazol-1-yl)pyridin-2-yl)-5-(tetrahydro-2H-pyran-4-yl)-5,6-dihydro-4H-1,2,4-oxadiazine], the pEC50 was less than 5.52.

Staying with this assay, now noted: compounds 0.003-10 μM, incubated overnight (16-18 h), sandwich ELISA of supernatant.
`COc1nc(C2=NOCC(c3cc4c(Cl)cccc4o3)N2)ccc1-n1cnc(C)c1` (single isomer, unassigned; (-)) [Example 96A, (−)-5-(4-chlorobenzofuran-2-yl)-3-(6-methoxy-5-(4-methyl-1H-imidazol-1-yl)pyridin-2-yl)-5,6-dihydro-4H-1,2,4-oxadiazine] showed a pEC50 of 6.00.

`COc1nc(C2=NOCC(c3cc4c(F)cccc4o3)N2)ccc1-n1cnc(C)c1` (single isomer, unassigned; (-)) [Example 99B, (−)-5-(4-fluorobenzofuran-2-yl)-3-(6-methoxy-5-(4-methyl-1H-imidazol-1-yl)pyridin-2-yl)-5,6-dihydro-4H-1,2,4-oxadiazine]: the negative-log EC50 (pEC50) is 7.59.

In the case of `COc1nc(C2=NOCC(c3oc4ccc(F)cc4c3C)N2)ccc1-n1cnc(C)c1` (single isomer, unassigned; (-)) [Example 101A, (−)-5-(5-fluoro-3-methylbenzofuran-2-yl)-3-(6-methoxy-5-(4-methyl-1H-imidazol-1-yl)pyridin-2-yl)-5,6-dihydro-4H-1,2,4-oxadiazine], the pEC50 was 5.81.

In the case of `COc1nc(C2=NOCC(c3cn(C)c4cc(F)c(C(F)(F)F)cc34)N2)ccc1-n1cnc(C)c1` (single isomer, unassigned; (-)) [Example 104A, (−)-5-(6-fluoro-1-methyl-5-(trifluoromethyl)-1H-indol-3-yl)-3-(6-methoxy-5-(4-methyl-1H-imidazol-1-yl)pyridin-2-yl)-5,6-dihydro-4H-1,2,4-oxadiazine], the negative logarithm of the EC50 (pEC50) was 6.78.

`COc1nc(C2=NOCC(c3ccc(Cl)c(F)c3)N2)ccc1-n1cnc(C)c1` (single isomer, unassigned; (-)) [Example 106A, (−)-5-(4-chloro-3-fluorophenyl)-3-(6-methoxy-5-(4-methyl-1H-imidazol-1-yl)pyridin-2-yl)-5,6-dihydro-4H-1,2,4-oxadiazine] showed a pEC50 of less than 5.52.

Compound `COc1nc(C2=NOCC(c3ccc(F)c(Cl)c3)N2)ccc1-n1cnc(C)c1` (single isomer, unassigned; (-)) [Example 108A, (−)-5-(3-chloro-4-fluorophenyl)-3-(6-methoxy-5-(4-methyl-1H-imidazol-1-yl)pyridin-2-yl)-5,6-dihydro-4H-1,2,4-oxadiazine] gave a pEC50 of 5.58.

Compound `COc1nc(C2=NOCC(c3cc(F)cc(Cl)c3)N2)ccc1-n1cnc(C)c1` (single isomer, unassigned; (-)) [Example 111A, (−)-5-(3-chloro-5-fluorophenyl)-3-(6-methoxy-5-(4-methyl-1H-imidazol-1-yl)pyridin-2-yl)-5,6-dihydro-4H-1,2,4-oxadiazine] gave a pEC50 of less than 5.52.

`COc1nc(C2=NOCC(c3cccc(C(F)(F)F)c3)N2)ccc1-n1cnc(C)c1` (single isomer, unassigned; (-)) [Example 113A, (−)-3-(6-methoxy-5-(4-methyl-1H-imidazol-1-yl)pyridin-2-yl)-5-(3-(trifluoromethyl)phenyl)-5,6-dihydro-4H-1,2,4-oxadiazine] showed a negative-log EC50 (pEC50) of less than 5.52.

For the compound `COc1nc(C2=NOCC(c3ccc(C4CC4)cc3)N2)ccc1-n1cnc(C)c1` (single isomer, unassigned; (-)) [Example 116A, (−)-5-(4-cyclopropylphenyl)-3-(6-methoxy-5-(4-methyl-1H-imidazol-1-yl)pyridin-2-yl)-5,6-dihydro-4H-1,2,4-oxadiazine], the negative-log EC50 (pEC50) was 6.12.

As for `COc1nc(C2=NOCC(c3cc(Cl)cc(Cl)c3)N2)ccc1-n1cnc(C)c1` (single isomer, unassigned; (-)) [Example 118A, (−)-5-(3,5-dichlorophenyl)-3-(6-methoxy-5-(4-methyl-1H-imidazol-1-yl)pyridin-2-yl)-5,6-dihydro-4H-1,2,4-oxadiazine], the pEC50 is 5.82.

With `COc1nc(C2=NOCC(c3nn(C)c4ccccc34)N2)ccc1-n1cnc(C)c1` (single isomer, unassigned; (-)) [Example 124A, (−)-3-(6-methoxy-5-(4-methyl-1H-imidazol-1-yl)pyridin-2-yl)-5-(1-methyl-1H-indazol-3-yl)-5,6-dihydro-4H-1,2,4-oxadiazine], the pEC50 was 5.98.

In the case of `COc1nc(C2=NOCC(c3cccc(C4CC4)c3)N2)ccc1-n1cnc(C)c1` (single isomer, unassigned; (-)) [Example 127A, (−)-5-(3-cyclopropylphenyl)-3-(6-methoxy-5-(4-methyl-1H-imidazol-1-yl)pyridin-2-yl)-5,6-dihydro-4H-1,2,4-oxadiazine], the negative logarithm of the EC50 (pEC50) is 5.99.

As to `COc1nc(C2=NOCC(c3ccccc3C)N2)ccc1-n1cnc(C)c1` (single isomer, unassigned; (-)) [Example 131B, (−)-3-(6-methoxy-5-(4-methyl-1H-imidazol-1-yl)pyridin-2-yl)-5-(o-tolyl)-5,6-dihydro-4H-1,2,4-oxadiazine], the pEC50 was less than 5.52.

Regarding `COc1nc(C2=NOCC(c3cccc(C#N)c3)N2)ccc1-n1cnc(C)c1` (single isomer, unassigned; (-)) [Example 141A, (−)-3-(3-(6-methoxy-5-(4-methyl-1H-imidazol-1-yl)pyridin-2-yl)-5,6-dihydro-4H-1,2,4-oxadiazin-5-yl) benzonitrile], the negative logarithm of the EC50 (pEC50) is less than 5.52.

As for `COc1cccc(C2CON=C(c3ccc(-n4cnc(C)c4)c(OC)n3)N2)c1` (single isomer, unassigned; (-)) [Example 145A, (−)-3-(6-methoxy-5-(4-methyl-1H-imidazol-1-yl)pyridin-2-yl)-5-(3-methoxyphenyl)-5,6-dihydro-4H-1,2,4-oxadiazine], the pEC50 was 5.57.

The compound `COc1nc(C2=NOCC(C(C)(C)C)N2)ccc1-n1cnc(C)c1` (single isomer, unassigned; (-)) [Example 147A, (−)-5-(tert-butyl)-3-(6-methoxy-5-(4-methyl-1H-imidazol-1-yl)pyridin-2-yl)-5,6-dihydro-4H-1,2,4-oxadiazine] gave a negative logarithm of the EC50 (pEC50) of 6.88.

On to `COc1nc(C2=NOCC(C)N2)ccc1-n1cnc(C)c1` (single isomer, unassigned; (-)) [Example 149B, (−)-3-(6-methoxy-5-(4-methyl-1H-imidazol-1-yl)pyridin-2-yl)-5-methyl-5,6-dihydro-4H-1,2,4-oxadiazine], for which the pEC50 is less than 5.52.

Regarding `COc1nc(C2=NOCC(c3ccc(C#N)cc3)N2)ccc1-n1cnc(C)c1` (single isomer, unassigned; (-)) [Example 151A, (−)-4-(3-(6-methoxy-5-(4-methyl-1H-imidazol-1-yl)pyridin-2-yl)-5,6-dihydro-4H-1,2,4-oxadiazin-5-yl) benzonitrile], the negative logarithm of the EC50 (pEC50) is less than 5.52.
